Reference: PubChem BioAssay AID1845211 (Molecular Pharmacology Branch, DTP, NCI, 2023)

Tested on: NCI-H322M multicellular tumor spheroids, viability (% test/control)
Assay: Anticancer human tumor NCI-H322M cell line growth inhibition;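 as to viability, T/C: spheroids exposed to compound for seven days before readout; 100% = DMSO vehicle control wells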
Conditions: for IC50: curve of first compound; for viability, T/C: stronger effect = lower value
Excerpt: Multicellular complex tumor spheroid response to DNA repair inhibitors in combination with DNA-damaging drugs
This study explores the anticancer activities of DNA-damaging drugs and inhibitors of DNA damage repair, both as single agents and in combinations. Complex tumor spheroids comprised of malignant cells, endothelial cells and mesenchymal stem cells served as an in vitro model for human solid tumors. This model system incorporates physiologically relevant features and patient-derived or established malignant cell lines with clinically relevant genetic alterations from many tumor types. Twenty-six patient-derived or established malignant cell lines were evaluated representing sarcoma, melanoma, small cell lung cancer (SCLC), non-small cell lung cancer (NSCLC), as well as bladder, ovarian and pancreatic cancers. The concentration ranges selected for each drug and investigational agent were based upon clinically achievable concentrations if the clinical Cmax of the agent was known.
Compounds. The drugs and compounds olaparib (NSC753686), talazoparib (NSC767125), berzosertib (NSC777718), elimusertib (NSC800525), nedisertib (NSC802822), VX-984 (NSC792969), AZD-1390 (NSC803789), temozolomide (NSC362856), topotecan (NSC609699), trabectedin (NSC813783), staurosporine (NSC755774), and gemcitabine (NSC613327) were obtained from the National Cancer Institute (NCI) Developmental Therapeutics Program Chemical Repository. The FDA-approved anticancer drug set is available from the Developmental Therapeutics Program at https://dtp.cancer.gov/organization/dscb/obtaining/available_plates.htm. […] The stock solutions were prepared in dimethyl sulfoxide (DMSO, Sigma-Aldrich, St. Louis, MO, cat. D2650) at 400-fold the tested concentration and stored at -70 degrees C. Prior to their use, the stock solutions were diluted in fresh medium and the final DMSO concentration in the assay was 0.25% (v/v). All drugs and investigational agents were tested over a range starting from a high concentration at or near the clinical Cmax and decreasing in half-log increments. If the clinical Cmax for an agent had not been determined, the highest concentration tested was 10 microM.
Cell Lines. The patient-derived cancer cell (PDC) lines: 156681-154-R-J1-PDC, 283228-195-R-J1-PDC, 287954-098-R-J1-PDC, 292921-168-R-J2-PDC, 349418-098-R-PDC, 425362-245-T-J1-PDC, 556581-035-R-J1-PDC, and BL0293-F563-PDC were received from the NCI Patient-Derived Models Repository (PDMR, https://pdmr.cancer.gov). The established cell lines HS-SY-2 (RRID:CVCL_8719), MPNST, and SYO-1 (RRID:CVCL_7146) were obtained from the Sloan Kettering Institute. The alveolar soft parts sarcoma cell line ASPS-1 (RRID:CVCL_S738) was established at the NCI and grown from internal seed stocks. The following established cell lines were purchased from the American Type Culture Collection (ATCC, Manassas, VA): G-401 (ATCC, cat. CRL-1441, RRID:CVCL_0270), SW982 (ATCC, cat. HTB-93, RRID:CVCL_1734), VA-ES-BJ (ATCC, cat. CRL-2138, RRID:CVCL_1785), NCI-H719 (ATCC, cat. CRL-5837, RRID:CVCL_1582), NCI-H196 (ATCC, cat. CRL-5823, RRID:CVCL_1509), NCI-H841 (ATCC, cat. CRL-5845, RRID:CVCL_1595), NCI-H1618 (ATCC, cat. CRL-5879, RRID:CVCL_1480), NCI-H1876 (ATCC, cat. CRL-5902, RRID:CVCL_1503), DMS 114 (ATCC, cat. CRL-2066; RRID:CVCL_1174), NCI-H211 (ATCC, cat. CRL-5824; RRID:CVCL_1529), and SW 1271 (ATCC, cat. CRL-2177, RRID:CVCL_1716). The small cell lung cancer cell line COR-L88 was purchased from Sigma-Aldrich (cat. 92031917-1VL, RRID:CVCL_1141). The non-small cell lung cancer cell lines NCI-H226 (RRID:CVCL_1544) and NCI-H322M (RRID:CVCL_1557) were established at the NCI and grown from internal seed stocks. Pooled donor human umbilical vein endothelial cells (HUVEC, Lonza, cat. CC-2519) and human mesenchymal stem cells (hMSC, Lonza, cat. PT-2501) were purchased from Lonza (Walkersville, MD).
Cell Culture. All cells were maintained in an incubator at 37 degrees C and 5% CO2 with 95% humidity. […]

[1] = second compound 0.003 µM, first compound 0.0316 µM
[2] = second compound 0.003 µM, first compound 0.1 µM
[3] = second compound 0.003 µM, first compound 0.316 µM
[4] = second compound 0.003 µM, first compound 1 µM
[5] = second compound 0.003 µM, first compound 3.16 µM
[6] = second compound 0.003 µM, first compound 10 µM

## Cc1cc(C)c(CNC(=O)c2cc(-c3ccc(CN4CCOCC4)cc3)cc3c2cnn3C2CCCC2)c(=O)[nH]1 + CC[C@@]1(O)C(=O)OCc2c1cc1n(c2=O)Cc2cc3c(CN(C)C)c(O)ccc3nc2-1
Second compound 0.003 µM
  IC50: > 10 µM
Second compound 0.00949 µM
  IC50: > 10 µM
Second compound 0.03 µM
  IC50: > 10 µM
Second compound 0.0949 µM
  IC50: > 10 µM
Second compound 0.3 µM
  IC50: > 10 µM
[1]
  viability, T/C: 89%
[2]
  viability, T/C: 82.3%
[3]
  viability, T/C: 83.7%
[4]
  viability, T/C: 86.5%
[5]
  viability, T/C: 81.2%
[6]
  viability, T/C: 112%
Second compound 0.00949 µM, first compound 0.0316 µM
  viability, T/C: 76.4%
Second compound 0.00949 µM, first compound 0.1 µM
  viability, T/C: 80.6%
Second compound 0.00949 µM, first compound 0.316 µM
  viability, T/C: 86.2%
Second compound 0.00949 µM, first compound 1 µM
  viability, T/C: 81.6%
Second compound 0.00949 µM, first compound 3.16 µM
  viability, T/C: 79.9%
Second compound 0.00949 µM, first compound 10 µM
  viability, T/C: 105%
Second compound 0.03 µM, first compound 0.0316 µM
  viability, T/C: 77.3%
Second compound 0.03 µM, first compound 0.1 µM
  viability, T/C: 84.9%
Second compound 0.03 µM, first compound 0.316 µM
  viability, T/C: 77.3%
Second compound 0.03 µM, first compound 1 µM
  viability, T/C: 76.7%
Second compound 0.03 µM, first compound 3.16 µM
  viability, T/C: 84.8%
Second compound 0.03 µM, first compound 10 µM
  viability, T/C: 101%
Second compound 0.0949 µM, first compound 0.0316 µM
  viability, T/C: 64.5%
Second compound 0.0949 µM, first compound 0.1 µM
  viability, T/C: 61.5%
Second compound 0.0949 µM, first compound 0.316 µM
  viability, T/C: 56.1%
Second compound 0.0949 µM, first compound 1 µM
  viability, T/C: 71.7%
Second compound 0.0949 µM, first compound 3.16 µM
  viability, T/C: 71.5%
Second compound 0.0949 µM, first compound 10 µM
  viability, T/C: 82.2%
Second compound 0.3 µM, first compound 0.0316 µM
  viability, T/C: 54.7%
Second compound 0.3 µM, first compound 0.1 µM
  viability, T/C: 49.3%
Second compound 0.3 µM, first compound 0.316 µM
  viability, T/C: 52.5%
Second compound 0.3 µM, first compound 1 µM
  viability, T/C: 51.5%
Second compound 0.3 µM, first compound 3.16 µM
  viability, T/C: 48.2%
Second compound 0.3 µM, first compound 10 µM
  viability, T/C: 59.5%

## Cc1cc(C)c(CNC(=O)c2cc(-c3ccc(CN4CCOCC4)cc3)cc3c2cnn3C2CCCC2)c(=O)[nH]1 + COc1cc2c(cc1O)CCNC21CSC2c3c(OC(C)=O)c(C)c4c(c3C(COC1=O)N1C(O)C3Cc5cc(C)c(OC)c(O)c5C(C21)N3C)OCO4
Second compound 30 pM
  IC50: > 10 µM
Second compound 94.9 pM
  IC50: > 10 µM
Second compound 0.0003 µM
  IC50: > 10 µM
Second compound 0.000949 µM
  IC50: > 10 µM
Second compound 0.003 µM
  IC50: < 0.0316 µM
Second compound 30 pM, first compound 0.0316 µM
  viability, T/C: 84.6%
Second compound 30 pM, first compound 0.1 µM
  viability, T/C: 97.8%
Second compound 30 pM, first compound 0.316 µM
  viability, T/C: 87.1%
Second compound 30 pM, first compound 1 µM
  viability, T/C: 97.9%
Second compound 30 pM, first compound 3.16 µM
  viability, T/C: 99.6%
Second compound 30 pM, first compound 10 µM
  viability, T/C: 114%
Second compound 94.9 pM, first compound 0.0316 µM
  viability, T/C: 92.8%
Second compound 94.9 pM, first compound 0.1 µM
  viability, T/C: 90.9%
Second compound 94.9 pM, first compound 0.316 µM
  viability, T/C: 92%
Second compound 94.9 pM, first compound 1 µM
  viability, T/C: 84.4%
Second compound 94.9 pM, first compound 3.16 µM
  viability, T/C: 89.5%
Second compound 94.9 pM, first compound 10 µM
  viability, T/C: 130%
Second compound 0.0003 µM, first compound 0.0316 µM
  viability, T/C: 96.6%
Second compound 0.0003 µM, first compound 0.1 µM
  viability, T/C: 98.1%
Second compound 0.0003 µM, first compound 0.316 µM
  viability, T/C: 98.2%
Second compound 0.0003 µM, first compound 1 µM
  viability, T/C: 95.3%
Second compound 0.0003 µM, first compound 3.16 µM
  viability, T/C: 108%
Second compound 0.0003 µM, first compound 10 µM
  viability, T/C: 126%
Second compound 0.000949 µM, first compound 0.0316 µM
  viability, T/C: 92.4%
Second compound 0.000949 µM, first compound 0.1 µM
  viability, T/C: 92.2%
Second compound 0.000949 µM, first compound 0.316 µM
  viability, T/C: 87.9%
Second compound 0.000949 µM, first compound 1 µM
  viability, T/C: 96.2%
Second compound 0.000949 µM, first compound 3.16 µM
  viability, T/C: 82%
Second compound 0.000949 µM, first compound 10 µM
  viability, T/C: 97.8%
[1]
  viability, T/C: 17.8%
[2]
  viability, T/C: 8.17%
[3]
  viability, T/C: 12.3%
[4]
  viability, T/C: 6.05%
[5]
  viability, T/C: 2.7%
[6]
  viability, T/C: 3.51%
